Each block holds one molecule with its values, some of them ahead of it.
Target: T1, α4β1 integrin (Homo sapiens, UniProt P05556+P13612)
T1 construct: endogenous in cells; host or cells: Ramos cells
Experiment: Adhesion of calcein-labeled Ramos cells to CS1 (fibronectin) peptide conjugated ovalbumin
Assay type: cell-based
Details: Ramos cell adhesion to CS1 conjugated ovalbumin
Method in brief: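 Calcein AM-labelled Ramos cells (2.5×10^5/well) with compound, up to 100 μM, added to plates coated with CS1 peptide–ovalbumin (0.5 μg/ml) and blocked with 3% BSA. Binding buffer TBS pH 7.5 with 1 mM each MgCl2, CaCl2, MnCl2; 30 min, 37 °C. After washes, adherent cells lysed and read fluorometrically; […].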

[1] = Table 7, dose required to give 50% inhibition
[2] = Table 5, dose required to give 50% inhibition

T1 sequence (P13612 34-1032): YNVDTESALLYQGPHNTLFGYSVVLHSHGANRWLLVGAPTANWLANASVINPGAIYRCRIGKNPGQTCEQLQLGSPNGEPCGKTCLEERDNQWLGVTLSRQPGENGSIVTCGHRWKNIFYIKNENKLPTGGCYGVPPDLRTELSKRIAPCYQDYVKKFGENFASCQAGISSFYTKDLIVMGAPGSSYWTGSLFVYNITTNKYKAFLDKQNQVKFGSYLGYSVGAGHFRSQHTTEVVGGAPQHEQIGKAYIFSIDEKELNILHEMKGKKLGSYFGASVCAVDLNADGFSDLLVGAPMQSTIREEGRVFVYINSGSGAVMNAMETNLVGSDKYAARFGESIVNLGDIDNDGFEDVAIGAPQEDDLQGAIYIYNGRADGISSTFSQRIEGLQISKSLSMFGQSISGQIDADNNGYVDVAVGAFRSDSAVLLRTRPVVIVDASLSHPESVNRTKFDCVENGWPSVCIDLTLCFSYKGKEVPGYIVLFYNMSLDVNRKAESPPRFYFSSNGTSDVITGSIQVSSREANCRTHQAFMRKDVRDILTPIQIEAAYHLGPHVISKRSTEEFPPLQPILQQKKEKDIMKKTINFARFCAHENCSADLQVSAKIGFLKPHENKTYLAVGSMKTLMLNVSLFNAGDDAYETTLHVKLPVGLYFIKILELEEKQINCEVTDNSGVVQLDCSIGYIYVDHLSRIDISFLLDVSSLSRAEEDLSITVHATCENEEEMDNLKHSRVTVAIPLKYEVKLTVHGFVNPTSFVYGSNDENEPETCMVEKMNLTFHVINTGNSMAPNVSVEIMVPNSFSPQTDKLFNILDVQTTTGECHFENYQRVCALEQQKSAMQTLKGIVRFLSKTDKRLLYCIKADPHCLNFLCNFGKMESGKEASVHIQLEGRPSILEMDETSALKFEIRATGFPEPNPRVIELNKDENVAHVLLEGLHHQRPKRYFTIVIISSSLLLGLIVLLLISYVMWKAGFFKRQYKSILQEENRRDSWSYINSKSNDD
T1 sequence (P05556 21-798): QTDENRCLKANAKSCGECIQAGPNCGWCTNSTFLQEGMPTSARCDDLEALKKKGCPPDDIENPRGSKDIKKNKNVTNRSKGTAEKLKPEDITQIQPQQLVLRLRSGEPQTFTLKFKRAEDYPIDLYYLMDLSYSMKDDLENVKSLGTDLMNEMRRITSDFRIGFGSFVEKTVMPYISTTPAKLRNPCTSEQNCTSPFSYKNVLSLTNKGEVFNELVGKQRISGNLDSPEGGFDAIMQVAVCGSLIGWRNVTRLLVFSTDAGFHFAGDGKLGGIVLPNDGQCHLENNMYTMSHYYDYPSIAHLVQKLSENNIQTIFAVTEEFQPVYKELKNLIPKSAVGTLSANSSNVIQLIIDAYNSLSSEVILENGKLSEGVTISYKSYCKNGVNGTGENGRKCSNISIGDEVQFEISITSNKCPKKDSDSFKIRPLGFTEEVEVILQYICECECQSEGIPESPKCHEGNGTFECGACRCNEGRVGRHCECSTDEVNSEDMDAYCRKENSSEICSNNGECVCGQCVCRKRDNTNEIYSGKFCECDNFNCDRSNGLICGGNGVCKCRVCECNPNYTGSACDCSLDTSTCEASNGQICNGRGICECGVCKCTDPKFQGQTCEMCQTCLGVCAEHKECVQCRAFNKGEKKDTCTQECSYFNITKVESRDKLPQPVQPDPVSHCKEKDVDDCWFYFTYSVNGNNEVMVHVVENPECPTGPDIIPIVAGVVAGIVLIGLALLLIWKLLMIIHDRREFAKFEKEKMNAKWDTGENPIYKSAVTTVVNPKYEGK

IC50 (Table 3, 30 minutes at 37° C.): 20 nM
SMILES: Cc1ccc([C@H](CC(=O)O)NC(=O)Nc2c(C)ccn(Cc3c(Cl)cccc3Cl)c2=O)cc1

IC50 [1]: 3 nM
SMILES: CCOc1cccc(Cl)c1Cn1cc(C)c(O)c(NC(=O)N[C@@H](CC(=O)O)c2ccc3c(ccn3C)c2)c1=O [(3S)-3-[({[1-(2-chloro-6-ethoxybenzyl)-4-hydroxy-5-methyl-2-oxo-1,2-dihydropyridin-3-yl]amino}carbonyl)amino]-3-(1-methyl-1H-indol-5-yl)propanoic acid]

IC50 [2]: 4000 nM
SMILES: Cc1ccc([C@H](CC(=O)O)NC(=O)Nc2cccn(Cc3cccc(C(C)(C)C)c3O)c2=O)cc1

IC50 (Table 4, 30 minutes at 37° C.): 800 nM
SMILES: O=C(O)C[C@H](NC(=O)Nc1cccn(Cc2cccc(Cl)c2)c1=O)c1ccc2c(c1)OCO2

IC50 [2]: 25 nM
SMILES: Cc1ccc(Cn2ccc(O)c(NC(=O)N[C@@H](CC(=O)O)c3ccc(C)cc3)c2=O)cc1

IC50 [1]: 8 nM
SMILES: O=C(O)C[C@H](NC(=O)Nc1c(O)c2c(n(Cc3ccccc3Cl)c1=O)CCC2)c1ccc2c(c1)CCC2

IC50 [1]: 20 nM
SMILES: Cc1cccc(Cl)c1Cn1c2c(c(O)c(NC(=O)N[C@@H](CC(=O)O)c3cccc(OC4CCC4)c3)c1=O)CCC2

IC50 [1]: 13 nM
SMILES: O=C(O)C[C@H](NC(=O)Nc1c(O)c2c(n(Cc3ccccc3Cl)c1=O)CCC2)c1ccc(OC(F)F)cc1

IC50 (Table 6, 30 minutes at 37° C.): 4 nM
SMILES: COc1ccc([C@H](CC(=O)O)NC(=O)Nc2c(O)c(C)cn(Cc3ccccc3Cl)c2=O)cc1 [(3S)-3-[({[1-(2-chlorobenzyl)-4-hydroxy-5-methyl-2-oxo-1,2-dihydropyridin-3-yl]amino}carbonyl)amino]-3-(4-methoxyphenyl)propanoic acid]

IC50 [2]: 50 nM
SMILES: CCc1ccc([C@H](CC(=O)O)NC(=O)Nc2c(O)ccn(Cc3ccccc3Cl)c2=O)cc1CC

IC50 [1]: 225 nM
SMILES: CCOc1c(Cl)ccc([C@H](CC(=O)O)NC(=O)Nc2c(O)c3c(n(Cc4ccccc4Cl)c2=O)CCC3)c1Cl

IC50 [2]: 25 nM
SMILES: COc1cc([C@H](CC(=O)O)NC(=O)Nc2c(O)c(C)c(C)n(Cc3c(C)cccc3Cl)c2=O)ccc1C

IC50 (Table 4, 30 minutes at 37° C.): 3000 nM
SMILES: O=C(O)C[C@H](NC(=O)Nc1cccn(Cc2cccs2)c1=O)c1cccc(F)c1

IC50 (Table 3, 30 minutes at 37° C.): 2 nM
SMILES: COCCOCCOc1ccn(Cc2ccccc2Cl)c(=O)c1NC(=O)N[C@@H](CC(=O)O)c1ccc(C)cc1

IC50 [2]: 20 nM
SMILES: COc1cc([C@H](CC(=O)O)NC(=O)Nc2c(O)c(C)cn(Cc3ccccc3Cl)c2=O)ccc1C

IC50 (Table 6, 30 minutes at 37° C.): 30 nM
SMILES: CCOc1cccc([C@H](CC(=O)O)NC(=O)Nc2c(O)c(C)c(C)n(Cc3ccccc3Cl)c2=O)c1

IC50 (Table 3, 30 minutes at 37° C.): 10 nM
SMILES: Cc1ccc([C@H](CC(=O)O)NC(=O)Nc2c(-c3ccccc3)ccn(Cc3ccccc3Cl)c2=O)cc1 [(3S)-3-{[({1-[(2-chlorophenyl)methyl]-2-oxo-4-phenyl-1,2-dihydro-3-pyridinyl}amino)carbonyl]amino}-3-(4-methylphenyl)propanoic acid]

IC50 (Table 6, 30 minutes at 37° C.): 10 nM
SMILES: Cc1cn(Cc2ccccc2Cl)c(=O)c(NC(=O)N[C@@H](CC(=O)O)c2cccc(C(F)(F)F)c2)c1O

IC50 [1]: 4 nM
SMILES: CCOc1cccc(Cl)c1Cn1cc(C)c(O)c(NC(=O)N[C@@H](CC(=O)O)c2cccc(OC(F)(F)F)c2)c1=O [(3S)-3-[({[1-(2-chloro-6-ethoxybenzyl)-4-hydroxy-5-methyl-2-oxo-1,2-dihydropyridin-3-yl]amino}carbonyl)amino]-3-[3-(trifluoromethoxy)phenyl]propanoic acid]

IC50 [1]: 18 nM
SMILES: Cc1cccc(-c2cccc([C@H](CC(=O)O)NC(=O)Nc3c(O)c(C)cn(Cc4ccccc4Cl)c3=O)c2)c1

IC50 [1]: 23 nM
SMILES: Cc1cccc(Cl)c1Cn1c2c(c(O)c(NC(=O)N[C@@H](CC(=O)O)c3ccc(Cl)c(OC(C)C)c3)c1=O)CCC2

IC50 (Table 3, 30 minutes at 37° C.): 5 nM
SMILES: Cc1ccc([C@H](CC(=O)O)NC(=O)Nc2c(C)ccn(Cc3ccccc3Cl)c2=O)cc1 [(3S)-3-{[({1-[(2-chlorophenyl)methyl]-4-methyl-2-oxo-1,2-dihydro-3-pyridinyl}amino)carbonyl]amino}-3-(4-methylphenyl)propanoic acid]

IC50 (Table 3, 30 minutes at 37° C.): 20 nM
SMILES: Cc1ccc([C@H](CC(=O)O)NC(=O)Nc2c(Br)ccn(Cc3ccccc3Cl)c2=O)cc1

IC50 [1]: 3 nM
SMILES: CCOc1cc([C@H](CC(=O)O)NC(=O)Nc2c(O)c3c(n(Cc4ccccc4Cl)c2=O)CCC3)cc(Cl)c1OCC

IC50 (Table 3, 30 minutes at 37° C.): 10 nM
SMILES: O=C(O)C[C@H](NC(=O)Nc1c(O)ccn(Cc2ccccc2Cl)c1=O)c1ccccc1 [(3S)-3-{[({1-[(2-chlorophenyl)methyl]-4-hydroxy-2-oxo-1,2-dihydro-3-pyridinyl}amino)carbonyl]amino}-3-phenylpropanoic acid]

IC50 (Table 3, 30 minutes at 37° C.): 20 nM
SMILES: Cc1ccc([C@H](CC(=O)O)NC(=O)Nc2c(NCc3cccnc3)ccn(Cc3ccccc3Cl)c2=O)cc1

IC50 (Table 4, 30 minutes at 37° C.): 3000 nM
SMILES: Cc1ccccc1[C@H](CC(=O)O)NC(=O)Nc1cccn(Cc2ccccc2Cl)c1=O

IC50 [1]: 3 nM
SMILES: Cc1cccc(Cl)c1Cn1c2c(c(O)c(NC(=O)N[C@@H](CC(=O)O)c3cccc(NS(C)(=O)=O)c3)c1=O)CCC2 [(3S)-3-{[({1-[(2-chloro-6-methylphenyl)methyl]-4-hydroxy-2-oxo-2,5,6,7-tetrahydro-1H-cyclopenta[b]pyridin-3-yl}amino)carbonyl]amino}-3-{3-[(methylsulfonyl)amino]phenyl}propanoic acid]

IC50 (Table 4, 30 minutes at 37° C.): 1000 nM
SMILES: O=C(O)CC(NC(=O)Nc1cccn(Cc2ccccc2Cl)c1=O)c1cccc(Cl)c1 (centres unmarked)

IC50 [2]: 30 nM
SMILES: Cc1ccc([C@H](CC(=O)O)NC(=O)Nc2c(O)ccn(Cc3ccccc3S(=O)(=O)N(C)C)c2=O)cc1

IC50 (Table 4, 30 minutes at 37° C.): 80 nM
SMILES: COc1cc([C@H](CC(=O)O)NC(=O)Nc2cccn(Cc3ccccc3Br)c2=O)cc(OC)c1OC

IC50 [2]: 100 nM
SMILES: COc1cccc(Cl)c1Cn1cccc(NC(=O)N[C@@H](CC(=O)O)c2ccc(C)cc2)c1=O [(3S)-3-[({[1-(2-chloro-6-methoxybenzyl)-2-oxo-1,2-dihydropyridin-3-yl]amino}carbonyl)amino]-3-(4-methylphenyl)propanoic acid]

IC50 [1]: 4 nM
SMILES: CCOc1cccc([C@H](CC(=O)O)NC(=O)Nc2c(O)c(C)cn(Cc3c(Cl)cccc3OCC(F)(F)F)c2=O)c1

IC50 [2]: 5 nM
SMILES: Cc1ccc([C@H](CC(=O)O)NC(=O)Nc2c(O)c(C)cn(Cc3ccccc3Cl)c2=O)cc1 [(3S)-3-[({[1-(2-chlorobenzyl)-4-hydroxy-5-methyl-2-oxo-1,2-dihydropyridin-3-yl]amino}carbonyl)amino]-3-(4-methylphenyl)propanoic acid]

IC50 [2]: 1.5 nM
SMILES: COc1cc(OC)cc([C@H](CC(=O)O)NC(=O)Nc2c(O)ccn(Cc3c(Cl)cccc3OC)c2=O)c1 [(3S)-3-[({[1-(2-chloro-6-methoxybenzyl)-4-hydroxy-2-oxo-1,2-dihydropyridin-3-yl]amino}carbonyl)amino]-3-(3,5-dimethoxyphenyl)propanoic acid]

IC50 [1]: 6 nM
SMILES: Cc1ccc([C@H](CC(=O)O)NC(=O)Nc2c(O)c(C)cn(Cc3cc(C(F)(F)F)ccc3Cl)c2=O)cc1

IC50 [2]: 20 nM
SMILES: Cc1ccc([C@H](CC(=O)O)NC(=O)Nc2c(O)ccn(Cc3ccccc3C(F)(F)F)c2=O)cc1

IC50 (Table 6, 30 minutes at 37° C.): 5 nM
SMILES: CCOc1cccc([C@H](CC(=O)O)NC(=O)Nc2c(O)c(C)nn(Cc3ccccc3Cl)c2=O)c1

IC50 [1]: 13 nM
SMILES: O=C(O)C[C@H](NC(=O)Nc1c(O)c2c(n(Cc3ccccc3Cl)c1=O)CCC2)c1ccc(OC(F)(F)F)cc1

IC50 (Table 3, 30 minutes at 37° C.): 3 nM
SMILES: COc1cc(OC)cc([C@H](CC(=O)O)NC(=O)Nc2c(O)ccn(Cc3ccccc3Cl)c2=O)c1 [(3S)-3-[3,5-bis(methyloxy)phenyl]-3-{[({1-[(2-chlorophenyl)methyl]-4-hydroxy-2-oxo-1,2-dihydro-3-pyridinyl}amino)carbonyl]amino}propanoic acid]

IC50 (Table 4, 30 minutes at 37° C.): 15 nM
SMILES: O=C(O)C[C@H](NC(=O)Nc1c(O)ccn(Cc2ccccc2Cl)c1=O)c1ccc(OC(F)(F)F)cc1
